# Measured values reported in patent publication US20220085295A1, “Novel Compound and Organic Light Emitting Device Comprising the Same” (LG Chem, Ltd., priority 2019, published 2022).
# Assay: Solubility experiment in toluene
# Assay type: physicochemical
# Conditions: in toluene at room temperature/normal pressure
row,SMILES,Solubility (wt %)
1,CC(C)(C)c1ccc(N(c2ccc(C(C)(C)C)cc2)c2ccc(C3(c4ccc(C(C)(C)C)cc4)c4cc(N(c5ccccc5)c5ccc(C(C)(C)C)cc5)ccc4-c4c3cc(N(c3ccccc3)c3ccc(C(C)(C)C)cc3)c3oc5ccccc5c43)cc2)cc1 (stereo not shown) [Compound 1],4.5 wt %
2,CC(C)(C)c1ccc(N(c2ccc(C(C)(C)C)cc2)c2ccc(C3(c4ccc(C(C)(C)C)cc4)c4cc(N(c5ccc(C(C)(C)C)cc5)c5cccc6c5oc5ccccc56)ccc4-c4c3cc(N(c3ccc(C(C)(C)C)cc3)c3cccc5c3oc3ccccc35)c3oc5ccccc5c43)cc2)cc1 (stereo not shown) [Compound 2],4.7 wt %
3,CC(C)(C)c1ccc(N(c2ccc(C(C)(C)C)cc2)c2ccc(C3(c4ccc(C(C)(C)C)cc4)c4cc(N(c5ccccc5)c5ccc(C(C)(C)C)cc5)ccc4-c4c3cc(N(c3ccccc3)c3ccc(C(C)(C)C)cc3)c3c4-c4ccccc4C3(C)C)cc2)cc1 (stereo not shown) [Compound 3],5.8 wt %
4,CC(C)(C)c1ccc(N(c2ccc(C(C)(C)C)cc2)c2ccc(C3(c4ccc(C(C)(C)C)cc4)c4cc(N(c5ccc(C(C)(C)C)cc5)c5cccc6c5oc5ccccc56)ccc4-c4c3cc(N(c3ccc(C(C)(C)C)cc3)c3cccc5c3oc3ccccc35)c3c4-c4ccccc4C3(C)C)cc2)cc1 (stereo not shown) [Compound 4],5.5 wt %
5,CC(C)(C)c1ccc(N(c2ccc(C(C)(C)C)cc2)c2ccc(C3(c4ccc(C(C)(C)C)cc4)c4cc(N(c5ccccc5)c5ccc(C(C)(C)C)cc5)c5c(oc6ccccc65)c4-c4c3cc(N(c3ccccc3)c3ccc(C(C)(C)C)cc3)c3oc5ccccc5c43)cc2)cc1 (stereo not shown) [Compound 5],3.9 wt %
6,CC(C)(C)c1ccc(N(c2ccc(C(C)(C)C)cc2)c2ccc(C3(c4ccc(C(C)(C)C)cc4)c4cc(N(c5ccc(C(C)(C)C)cc5)c5cccc6c5oc5ccccc56)c5c(oc6ccccc65)c4-c4c3cc(N(c3ccc(C(C)(C)C)cc3)c3cccc5c3oc3ccccc35)c3oc5ccccc5c43)cc2)cc1 (stereo not shown) [Compound 6],4.1 wt %
7,CC(C)(C)c1ccc(Oc2ccc(C3(c4ccc(C(C)(C)C)cc4)c4cc(N(c5ccccc5)c5ccc(C(C)(C)C)cc5)c5c(oc6ccccc65)c4-c4c3cc(N(c3ccccc3)c3ccc(C(C)(C)C)cc3)c3oc5ccccc5c43)cc2)cc1 (stereo not shown) [Compound 7],3.8 wt %

# Second part, the molecule after the results:
row,Solubility (wt %),SMILES
1,3.9 wt %,CC(C)(C)c1ccc(Sc2ccc(C3(c4ccc(C(C)(C)C)cc4)c4cc(N(c5ccccc5)c5ccc(C(C)(C)C)cc5)c5c(oc6ccccc65)c4-c4c3cc(N(c3ccccc3)c3ccc(C(C)(C)C)cc3)c3oc5ccccc5c43)cc2)cc1 (stereo not shown) [Compound 8]
2,3.4 wt %,Cc1ccc(C)c(C2(c3ccc([Si](C)(C)C)cc3)c3cc(N(c4ccccc4)c4ccc(C(C)(C)C)cc4)c4c(oc5ccccc54)c3-c3c2cc(N(c2ccccc2)c2ccc(C(C)(C)C)cc2)c2oc4ccccc4c32)c1 (stereo not shown) [Compound 9]
3,2.0 wt %,"CC(C)(C)c1ccc(N(c2ccccc2)c2ccc3c(c2)C2(c4ccccc4-c4ccccc42)c2cc(N(c4ccccc4)c4ccc(C(C)(C)C)cc4)c4c(oc5ccccc54)c2-3)cc1 [Compound BD, reference compound]"
